Data as given in ChEMBL document CHEMBL2057065, “The 3-Deoxy Analogue of α-GalCer: Disclosing the Role of the 4-Hydroxyl Group for CD1d-Mediated NKT Cell Activation” (ACS Med Chem Lett, 2011).
Calls of active or inactive are those of the source.

Experiments:
Splenocyte [1] = test: Immunostimulatory activity in mouse splenocytes assessed as IFNgamma production at 8 ng/ml after 72 hrs by ELISA; assay type: functional, cell-based
Splenocyte [2] = test: Immunostimulatory activity in mouse splenocytes assessed as IL4 production at 8 ng/ml after 72 hrs by ELISA; assay type: functional, cell-based
Mus musculus = species on record: Mus musculus; test: Immunostimulatory activity in mouse DN32.D3 NKT hybridoma cells assessed as IL-2 production after 16 hrs by ELISA; assay type: functional

Measured: Activity

CCCCCCCCCCCCCCCCCCCCCCCCCC(=O)N[C@@H](CO[C@H]1O[C@H](CO)[C@H](O)[C@H](O)[C@H]1O)C[C@H](O)CCCCCCCCCCCCCC
active: all assays above

CCCCCCCCCCCCCCCCCCCCCCCCCC(=O)N[C@@H](CO[C@H]1O[C@H](CO)[C@H](O)[C@H](O)[C@H]1O)[C@H](O)CCCCCCCCCCCCCCC
active: all assays above

CCCCCCCCCCCCCCCCCCCCCCCCCC(=O)N[C@@H](CO[C@H]1O[C@H](CO)[C@H](O)[C@H](O)[C@H]1O)[C@H](O)[C@H](O)CCCCCCCCCCCCCC
active: all assays above
